According to patent publication US6548062B2, “Method of treating cancer with anti-neurotrophin agents” (Cephalon, Inc., priority 2000, dated 2003):

Assays:
[1] = tested on: PC-3 human prostate tumor cells; assay: PC-3 prostate cancer xenograft growth in nude mice; format: in vivo, human tumor cells in athymic nude mice; conditions: 10 mg/kg s.c. BID
Method: PC-3 human prostate tumor cells (5×10^6 cells/mice) were injected subcutaneously into the flank of eight to ten week old, female athymic nude mice (nu/nu; Charles River, Raleigh, N.C.). Mice weighed between 22-25 grams on the day of tumor implantation. Upon xenografts reaching 100-500 mm^3, the mice were randomized and divided into experimental groups. Some experimental groups were administered a cocktail of neurotrophin antibodies (4×25 μg each, or 4×100 μg each of anti-NGF, BDNF, NT-3, and NT4/5) or normal rabbit IgG (100 μg or 400 μg; PeproTech 500-P00) in sterile 1×PBS (total volume of 100 μl). All antibodies were administered intratumorally (50 μl) at five injection sites and peritumorally, subcutaneously (50 μl) at five injection sites. […] Tumor length and width were measured every two to three days. […] Tumor length and width were measured every two to three days (days 1, 3, 5, 8, 10, 12, 15, 17, 19 and 22).
Tumor volumes were calculated as (length×width (length+width)/2))×0.526 (Isaacs, Canc. […] The mean tumor volumes and standard errors were calculated (SigmaStat, Jandel Scientific, San Rafel, Calif.). […] Relative tumor volumes were calculated as (mean vt mean vo), where vt refers to tumor volume on a given day and vo is the volume of the same tumor at initiation of dosing (day 1). […] Probability values were calculated by the Mann-Whitney Rank Sum Test (SigmaStat).

trkA = trkA (Homo sapiens, UniProt P04629); conditions: ELISA (stated for CEP-751); read-out: IC50 trkA inhibition; cited from earlier work
[2] = tested on: TSU-Pr1 human prostate tumor cells; assay: TSU-Pr1 prostate cancer xenograft growth in nude mice; format: in vivo; conditions: Experiment #1
Method: (§1) TSU-Pr1 human prostate tumor cells were injected subcutaneously into the flank of female athymic nude mice (nu/nu; 5×10^6 cells/mice). Upon xenografts reaching 100-500 mm^3, the mice were randomized and divided into four experimental groups. One group was administered a cocktail of neurotrophin antibodies (anti-NGF, BDNF, NT-3, and NT4/5). Each dose of antibody cocktail (100 μl) contained 100 μg of each neurotrophin antibody. The second experimental group was administered normal rabbit IgG (400 μg/100 μl; PeproTech 500-P00) as a control. All antibodies were administered intratumorally (50 μl) at five injection sites and peritumorally (50 μl) at five injection sites. […] Tumor length and width were measured every two to three days (Days 1, 3, 5, 8, 10, 12, and 15).
The fourth experimental group received vehicle only (100 μl) according to the dosing schedule of the third experimental group. Tumor length and width were measured every two to three days (Days 1, 3, 5, 8, 10, 12, and 15).
Tumor volumes were calculated as described above. The mean tumor volumes and standard errors were calculated as described above. […] Probability values were calculated as described above. […]
Tumor volumes were calculated as described above. The mean tumor volumes and standard errors were also calculated as described above. […] Probability values were calculated as described above.

[3] = tested on: AsPC-1 human pancreatic tumor cells; assay: AsPC-1 pancreatic cancer xenograft growth in nude mice; format: in vivo
Method: as §1, with “AsPC-1” for “TSU-Pr1”, “pancreatic” for “prostate”, “15). […]” for “15).”
Tumor volumes were calculated as described above. The mean tumor volumes and standard errors were also calculated as described above. […] Probability values were calculated as described above. […]
Tumors were measured every 2-4 days using a vernier caliper. Tumor volumes were calculated as described above. The mean tumor volumes and standard errors were also calculated as described above. […] Statistical analyses were calculated as described above with p≦0.05 deemed significant. […]

[4] = tested on: AsPC-1 human pancreatic tumor cells; conditions: previously published data; cited from earlier work
[5] = tested on: CFPAC human pancreatic carcinoma cells; conditions: previously published data; cited from earlier work

trkA, sequence (P04629 33-796, species assumed): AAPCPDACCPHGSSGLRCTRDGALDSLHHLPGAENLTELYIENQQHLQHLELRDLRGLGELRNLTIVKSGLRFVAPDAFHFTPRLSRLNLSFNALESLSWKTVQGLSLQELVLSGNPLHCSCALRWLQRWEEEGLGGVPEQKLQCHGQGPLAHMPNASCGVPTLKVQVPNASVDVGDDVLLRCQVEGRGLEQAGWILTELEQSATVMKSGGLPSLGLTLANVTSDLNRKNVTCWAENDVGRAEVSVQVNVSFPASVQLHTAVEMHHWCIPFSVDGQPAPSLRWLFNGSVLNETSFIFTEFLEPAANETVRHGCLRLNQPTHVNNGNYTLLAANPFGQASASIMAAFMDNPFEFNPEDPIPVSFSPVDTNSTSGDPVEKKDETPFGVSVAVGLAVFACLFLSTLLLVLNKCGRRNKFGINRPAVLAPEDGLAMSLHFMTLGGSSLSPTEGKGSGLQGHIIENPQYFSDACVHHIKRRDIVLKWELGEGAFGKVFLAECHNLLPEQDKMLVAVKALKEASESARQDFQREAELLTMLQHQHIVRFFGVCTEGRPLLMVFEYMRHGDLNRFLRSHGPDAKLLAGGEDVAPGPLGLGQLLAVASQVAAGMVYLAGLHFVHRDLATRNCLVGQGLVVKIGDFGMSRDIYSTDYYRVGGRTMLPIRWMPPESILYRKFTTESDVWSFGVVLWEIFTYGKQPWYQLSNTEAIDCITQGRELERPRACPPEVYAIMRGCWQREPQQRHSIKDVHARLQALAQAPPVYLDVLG

SMILES | Growth of PC-3 tumors relative to vehicle control ([1]; 22 days) | Minimum T/C (absolute tumor volumes vs vehicle control) ([1]; day 19) | IC50 (trkA) [nM] | Minimum T/C (absolute tumor volumes vs vehicle control) ([2]; 10 mg/kg sc BID, Days 12 and 15) | Tolerability (deaths or morbidity) ([2]; nude mice bearing TSU-Pr1 xenografts) | Minimum T/C (absolute tumor volumes vs vehicle control) ([3]; 10 mg/kg sc BID, Day 15) | Tolerability (deaths or morbidity) ([3]; nude mice bearing AsPC-1 xenografts) | Growth of AsPC-1 tumors [4] | CFPAC tumor growth [5]
CO[C@]1(CO)C[C@H]2O[C@]1(C)n1c3ccccc3c3c4c(c5c6ccccc6n2c5c31)C(=O)NC4 [CEP-751] | inhibited the growth of PC-3 tumors | 0.44 | 3 | – | – | – | – | – | –
C[C@]12O[C@H](C[C@]1(O)CO)n1c3ccccc3c3c4c(c5c6ccccc6n2c5c31)CNC4=O [CEP-701] | – | – | – | 0.29 | well tolerated | 0.27 | well tolerated | inhibited | insensitive
